Source: US20240360194A1, “New Peptides as Potent and Selective GIP Receptor Agonists” (Sanofi, priority 2021, published 2024)
≈ marks a conversion by molar mass, not a printed value. Read-outs that look alike come from different tables or passages of the source.

How the values were obtained:
[1] = biological target: T1, human GIP receptor (hGIPR) (Homo sapiens, UniProt P48546); assay: In vitro cellular cAMP assay for GIP receptor efficacy (HEK-293 cell line over-expressing receptor); type: cell-based; settings: EC50 hGIPR 0.1% BSA, HEK-293, 0.1% BSA
T1 sequence (P48546 22-466): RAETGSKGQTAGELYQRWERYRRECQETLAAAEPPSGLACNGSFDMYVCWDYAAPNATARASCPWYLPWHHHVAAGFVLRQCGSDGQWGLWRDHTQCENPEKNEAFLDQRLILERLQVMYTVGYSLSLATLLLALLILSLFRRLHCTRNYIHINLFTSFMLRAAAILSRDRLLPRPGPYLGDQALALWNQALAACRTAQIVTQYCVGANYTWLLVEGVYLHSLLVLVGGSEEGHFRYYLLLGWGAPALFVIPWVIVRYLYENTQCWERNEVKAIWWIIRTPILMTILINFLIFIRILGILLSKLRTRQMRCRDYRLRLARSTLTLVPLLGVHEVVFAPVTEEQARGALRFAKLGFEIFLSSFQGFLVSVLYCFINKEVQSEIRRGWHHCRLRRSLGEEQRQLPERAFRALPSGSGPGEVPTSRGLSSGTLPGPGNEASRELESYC

human GIP receptor = biological target: T2, human GIP receptor (Homo sapiens, UniProt P48546); assay: In vitro cellular cAMP assay for GIP receptor efficacy (human adipocytes); type: cell-based; settings: for EC50: read-out: hGIPR EC50; for Emax: read-out: hGIPR Emax
T2 construct: human adipocytes endogenously expressing the human GIP receptor; host or cells: human preadipocytes (Lonza) differentiated to adipocytes
T2 sequence (P48546 22-466): T1 sequence (P48546 22-466)
Summary of the method: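 cAMP is read by HTRF (665/620 nm ratio, 1 h after reagents in lysis buffer) following 30 min compound exposure at room temperature. Cells are human preadipocyte-derived adipocytes, differentiated 6 days with insulin, dexamethasone, IBMX (200 μM), PPARγ agonist and L-thyroxine, seeded 5000 per well.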

[2] = Solubility assessment (UHPLC-UV of supernatant, target 10 mg/ml); type: physicochemical; settings: read-out: Soluble amount
Summary of the method: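 Peptides at 10 mg/ml (purity-corrected) in 100 mM phosphate pH 7.4, optionally with 2.7 mg/ml m-cresol; gentle agitation 1 h, then 5° C. overnight (24 h). Supernatant after 15 min centrifugation at 2500 RCF quantified by UHPLC-UV, with sequence-based extinction coefficients.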

[3] = biological target: T1, human GIP receptor (hGIPR); assay: Binding assay, displacement of [125I]GIP from HEK-293 membranes over-expressing GIPR (SPA); settings: [125I]GIP displacement
Summary of the method: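 Membranes from HEK-293 cells over-expressing human GIPR or GLP-1R, isolated by homogenising, sonicating and ultracentrifuging at 100000×g into HEPES/EDTA/NaCl buffer with protease inhibitors, were used for binding.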

[4] = biological target: T3, human GLP-1 receptor (hGLP-1R) (Homo sapiens, UniProt P43220); assay: In vitro cellular cAMP assay for GLP-1 receptor efficacy (HEK-293 cell line over-expressing receptor); type: cell-based; settings: HEK-293, 0.1% BSA
[5] = biological target: T3, human GLP-1 receptor (hGLP-1R); assay: Binding assay, displacement of [125I]GLP-1 from HEK-293 membranes over-expressing GLP-1R (SPA); settings: [125I]GLP-1 displacement
Protocol: (1) Preparation of Membranes from HEK-293 Cells Over-Expressing GIPR or GLP-1R
HEK-293 cells recombinantly over-expressing GIPR or GLP-1R were grown to 50% confluency, washed with warm 1×PBS (Gibco) and detached in HEPES/EDTA-buffer (100 mM HEPES pH 7.5, 5 mM EDTA). Cells were harvested by centrifugation at 4° C. and 3000×g and the pellets were stored at −80° C. until further processing.
After thawing on ice, pellets were resuspended in HEPES/EDTA-buffer and homogenized on ice for 1 min using Ultra-Turray T25. After subsequent sonification the cell debris was removed by centrifugation at 1000×g and 4° C. Supernatants were then ultra-centrifuged at 100000×g and 4° C. under vacuum for 30 min. Pellets were resuspended in HEPES/EDTA/NaCl-buffer (20 mM HEPES, 1 mM EDTA, 150 mM NaCl; add 1 Complete Mini Protease inhibitor cocktail to 10 ml buffer) and protein content was determined via BCA-Protein assay.
(2) Measurement of Binding Activity of Test Compounds to Human GIPR or GLP-1R

[6] = 100 mM phosphate buffer pH 7.4 (solubility buffer system A), pH 7.4, Solubility buffer system A: 100 mM phosphate buffer pH 7.4
[7] = pH 7.4, Solubility buffer system C: 100 mM phosphate buffer pH 7.4, 2.7 mg/ml m-cresol

T3 sequence (P43220 24-463): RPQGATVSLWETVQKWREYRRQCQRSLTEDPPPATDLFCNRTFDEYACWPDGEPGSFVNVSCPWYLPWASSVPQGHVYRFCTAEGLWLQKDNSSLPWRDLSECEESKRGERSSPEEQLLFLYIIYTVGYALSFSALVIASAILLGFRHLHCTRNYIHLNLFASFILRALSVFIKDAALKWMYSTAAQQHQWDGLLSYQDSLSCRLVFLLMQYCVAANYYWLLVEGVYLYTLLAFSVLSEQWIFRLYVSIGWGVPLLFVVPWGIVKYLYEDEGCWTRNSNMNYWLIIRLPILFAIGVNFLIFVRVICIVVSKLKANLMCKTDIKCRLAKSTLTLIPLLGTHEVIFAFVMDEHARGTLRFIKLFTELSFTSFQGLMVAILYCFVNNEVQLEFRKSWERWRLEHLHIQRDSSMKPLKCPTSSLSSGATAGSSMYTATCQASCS

EC50 [1] [pM] | EC50 (human GIP receptor) [nM] | Emax (human GIP receptor) [%] | solubility at 24 h [2, 6] [µg/mL] | IC50 [3] [nM] | EC50 [4] [nM] | IC50 [5] [nM] | solubility at 24 h [2, 7] [µg/mL] | SMILES
51.8 | 2.1 | 114 | 5200 (≈ 1180 µM) | 0.7 | > 10 | 236 |  | CC[C@H](C)[C@H](NC(=O)[C@H](Cc1ccccc1)NC(=O)[C@H](CCC(=O)O)NC(=O)[C@H](CCC(=O)O)NC(=O)[C@H](CCC(N)=O)NC(=O)[C@H](Cc1c[nH]cn1)NC(=O)[C@@H](NC(=O)[C@H](CCCNC(=N)N)NC(=O)[C@H](CC(=O)O)NC(=O)[C@H](CCCCNC(=O)COCCOCCNC(=O)COCCOCCNC(=O)CC[C@H](NC(=O)CCCCCCCCCCCCCCCCCCC(=O)O)C(=O)O)NC(=O)C(C)(C)NC(=O)[C@@H](NC(=O)[C@H](CO)NC(=O)[C@H](CC(C)C)NC(=O)[C@H](CC(=O)O)NC(=O)[C@H](CO)NC(=O)[C@@H](NC(=O)[C@H](Cc1ccccc1)NC(=O)[C@@H](NC(=O)CNC(=O)[C@H](CCC(=O)O)NC(=O)C(C)(C)NC(=O)[C@@H](N)Cc1ccc(O)cc1)[C@@H](C)O)[C@@H](C)CC)[C@@H](C)CC)[C@@H](C)CC)C(=O)N[C@@H](CCC(=O)O)C(=O)N[C@@H](Cc1c[nH]c2ccccc12)C(=O)N[C@@H](CC(C)C)C(=O)N[C@@H](CC(C)C)C(=O)N[C@@H](C)C(=O)N[C@@H](CCC(N)=O)C(=O)N[C@@H](CCCNC(=N)N)C(=O)NCC(N)=O [SEQ ID NO: 5, H2N-Y-Aib-E-G-T-F-I-S-D-L-S-I-Aib-K[{AEEA}2-gGlu-C20OH]-D-R-I-H-Q-E-E-F-I-E-W-L-L-A-Q-R-G-NH2]
9.64 | 0.4 | 121 | 9100 (≈ 2160 µM) | 0.1 | > 10 | 106 | 4000 (≈ 949 µM) | CC[C@H](C)[C@H](NC(=O)[C@H](CCCNC(=N)N)NC(=O)[C@H](CC(=O)O)NC(=O)[C@H](CCCCNC(=O)CNC(=O)CNC(=O)CNC(=O)CC[C@H](NC(=O)CCCCCCCCCCCCCCCCC(=O)O)C(=O)O)NC(=O)C(C)(C)NC(=O)[C@@H](NC(=O)[C@H](CO)NC(=O)[C@H](CC(C)C)NC(=O)[C@H](CC(=O)O)NC(=O)[C@H](CO)NC(=O)[C@@H](NC(=O)[C@H](Cc1ccccc1)NC(=O)[C@@H](NC(=O)CNC(=O)[C@H](CCC(=O)O)NC(=O)C(C)(C)NC(=O)[C@@H](N)Cc1ccc(O)cc1)[C@@H](C)O)[C@@H](C)CC)[C@@H](C)CC)C(=O)N[C@@H](Cc1c[nH]cn1)C(=O)N[C@@H](CCC(N)=O)C(=O)NC(C)(C)C(=O)N[C@@H](CCC(=O)O)C(=O)N[C@@H](Cc1ccccc1)C(=O)N[C@H](C(=O)N[C@@H](CCC(=O)O)C(=O)N[C@@H](Cc1c[nH]c2ccccc12)C(=O)N[C@@H](CC(C)C)C(=O)N[C@@H](CC(C)C)C(=O)N[C@@H](C)C(=O)N[C@@H](CCC(N)=O)C(=O)N[C@@H](CCCNC(=N)N)C(=O)NCC(N)=O)[C@@H](C)CC [SEQ ID NO: 7, H2N-Y-Aib-E-G-T-F-I-S-D-L-S-I-Aib-K[{Gly}3-gGlu-C18OH]-D-R-I-H-Q-Aib-E-F-I-E-W-L-L-A-Q-R-G-NH2]
7.45 | 0.7 | 128 | > 10700 | 0.1 | > 10 | 139 | 1800 (≈ 423 µM) | CC[C@H](C)[C@H](NC(=O)[C@H](CCCNC(=N)N)NC(=O)[C@H](CC(=O)O)NC(=O)[C@H](CCCCNC(=O)CN(C)C(=O)CN(C)C(=O)CN(C)C(=O)CC[C@H](NC(=O)CCCCCCCCCCCCCCCCC(=O)O)C(=O)O)NC(=O)C(C)(C)NC(=O)[C@@H](NC(=O)[C@H](CO)NC(=O)[C@H](CC(C)C)NC(=O)[C@H](CC(=O)O)NC(=O)[C@H](CO)NC(=O)[C@@H](NC(=O)[C@H](Cc1ccccc1)NC(=O)[C@@H](NC(=O)CNC(=O)[C@H](CCC(=O)O)NC(=O)C(C)(C)NC(=O)[C@@H](N)Cc1ccc(O)cc1)[C@@H](C)O)[C@@H](C)CC)[C@@H](C)CC)C(=O)N[C@@H](Cc1c[nH]cn1)C(=O)N[C@@H](CCC(N)=O)C(=O)NC(C)(C)C(=O)N[C@@H](CCC(=O)O)C(=O)N[C@@H](Cc1ccccc1)C(=O)N[C@H](C(=O)N[C@@H](CCC(=O)O)C(=O)N[C@@H](Cc1c[nH]c2ccccc12)C(=O)N[C@@H](CC(C)C)C(=O)N[C@@H](CC(C)C)C(=O)N[C@@H](C)C(=O)N[C@@H](CCC(N)=O)C(=O)N[C@@H](CCCNC(=N)N)C(=O)NCC(N)=O)[C@@H](C)CC [SEQ ID NO: 8, H2N-Y-Aib-E-G-T-F-I-S-D-L-S-I-Aib-K[{N-MeGly}3-gGlu-C18OH]-D-R-I-H-Q-Aib-E-F-I-E-W-L-L-A-Q-R-G-NH2]
9.17 | 0.8 | 108 | > 10200 | 0.6 | > 10 | 224 | 7700 (≈ 1720 µM) | CC[C@H](C)[C@H](NC(=O)[C@H](CCCNC(=N)N)NC(=O)[C@H](CC(=O)O)NC(=O)[C@H](CCCCNC(=O)COCCOCCNC(=O)COCCOCCNC(=O)CC[C@H](NC(=O)CC[C@H](NC(=O)CCCCCCCCCCCCCCCCC(=O)O)C(=O)O)C(=O)O)NC(=O)C(C)(C)NC(=O)[C@@H](NC(=O)[C@H](CO)NC(=O)[C@H](CC(C)C)NC(=O)[C@H](CC(=O)O)NC(=O)[C@H](CO)NC(=O)[C@@H](NC(=O)[C@H](Cc1ccccc1)NC(=O)[C@@H](NC(=O)CNC(=O)[C@H](CCC(=O)O)NC(=O)C(C)(C)NC(=O)[C@@H](N)Cc1ccc(O)cc1)[C@@H](C)O)[C@@H](C)CC)[C@@H](C)CC)C(=O)N[C@@H](Cc1c[nH]cn1)C(=O)N[C@@H](CCC(N)=O)C(=O)NC(C)(C)C(=O)N[C@@H](CCC(=O)O)C(=O)N[C@@H](Cc1ccccc1)C(=O)N[C@H](C(=O)N[C@@H](CCC(=O)O)C(=O)N[C@@H](Cc1c[nH]c2ccccc12)C(=O)N[C@@H](CC(C)C)C(=O)N[C@@H](CC(C)C)C(=O)N[C@@H](C)C(=O)N[C@@H](CCC(N)=O)C(=O)N[C@@H](CCCNC(=N)N)C(=O)NCC(N)=O)[C@@H](C)CC [SEQ ID NO: 9, H2N-Y-Aib-E-G-T-F-I-S-D-L-S-I-Aib-K[{AEEA}2-{gGlu}2-C18OH]-D-R-I-H-Q-Aib-E-F-I-E-W-L-L-A-Q-R-G-NH2]
28.5 |  |  |  | 0.9 |  | 116 |  | CC[C@H](C)[C@H](NC(=O)[C@H](Cc1ccccc1)NC(=O)[C@H](CCC(=O)O)NC(=O)[C@H](CCC(=O)O)NC(=O)[C@H](CCC(N)=O)NC(=O)[C@H](Cc1c[nH]cn1)NC(=O)[C@@H](NC(=O)[C@H](CCCNC(=N)N)NC(=O)[C@H](CC(=O)O)NC(=O)[C@H](CCCCNC(=O)COCCOCCNC(=O)COCCOCCNC(=O)CC[C@H](NC(=O)CCCCCCCCCCCCCCCCC(=O)O)C(=O)O)NC(=O)C(C)(C)NC(=O)[C@@H](NC(=O)[C@H](CO)NC(=O)[C@H](CC(C)C)NC(=O)[C@H](CC(=O)O)NC(=O)[C@H](CO)NC(=O)[C@@H](NC(=O)[C@H](Cc1ccccc1)NC(=O)[C@@H](NC(=O)CNC(=O)[C@H](CCC(=O)O)NC(=O)C(C)(C)NC(=O)[C@@H](N)Cc1ccc(O)cc1)[C@@H](C)O)[C@@H](C)CC)[C@@H](C)CC)[C@@H](C)CC)C(=O)N[C@@H](CCC(=O)O)C(=O)N[C@@H](Cc1c[nH]c2ccccc12)C(=O)N[C@@H](CC(C)C)C(=O)N[C@@H](CC(C)C)C(=O)N[C@@H](C)C(=O)N[C@@H](CCC(N)=O)C(=O)N[C@@H](CCCNC(=N)N)C(=O)NCC(=O)O [SEQ ID NO: 13, H2N-Y-Aib-E-G-T-F-I-S-D-L-S-I-Aib-K[{AEEA}2-gGlu-C18OH]-D-R-I-H-Q-E-E-F-I-E-W-L-L-A-Q-R-G-OH]
